Test results: ChEMBL document CHEMBL2417526, “Stabilized cyclopropane analogs of the splicing inhibitor FD-895” (J Med Chem, 2013)
The source made the active and inactive calls. The calls are words filed in the database; no cut-off is given here.

Columns and labels:
HCT-116 = experiment: Cytotoxicity against human HCT116 cells by MTT assay; type: functional, cell-based
B-CLL [1] = experiment: Inhibition of spliceosome-mediated splicing of DNAJB1 gene in human B-CLL cells at 0.1 uM after 4 hrs by RT-PCR analysis; type: cell-based
[2] = Induction of apoptosis in human CLL cells by 3,3'-dihexyloxacarbocyanine iodide staining-based flow cytometry; type: functional, cell-based
B-CLL [3] = experiment: Inhibition of spliceosome-mediated splicing of DNAJB1 gene in human B-CLL cells at 10 uM after 4 hrs by RT-PCR analysis; type: cell-based
B-CLL [4] = experiment: Inhibition of spliceosome-mediated splicing of DNAJB1 gene in human B-CLL cells at 0.1 to 1.0 uM after 4 hrs by RT-PCR analysis; type: cell-based

| Compound | IC50 (HCT-116) [nM] | IC50 [2] [nM] | also measured |
| --- | --- | --- | --- |
| CC[C@H](OC)[C@@H](C)[C@H]1O[C@@H]1[C@H](OC(C)=O)[C@H](C)/C=C/C=C(\C)[C@H]1OC(=O)C[C@H](O)CC[C@@](C)(O)[C@@H](OC(C)=O)/C=C/[C@@H]1C | 142 | – | – |
| CC[C@H](O)[C@@H](C)[C@H]1O[C@@H]1C[C@H](C)/C=C/C=C(\C)[C@H]1OC(=O)C[C@H](O)CC[C@@](C)(O)[C@@H](OC(C)=O)CC[C@@H]1C [PLADIENOLIDE B] | 24.8 | 30.5 | Activity (B-CLL [1]): Active |
| CC[C@H](O)[C@@H](C)[C@H]1O[C@@H]1C[C@H](C)/C=C/C=C(\C)[C@H]1OC(=O)CCCCCC/C=C/[C@H]1C | > 50000 | – | – |
| CC[C@H](OC)[C@@H](C)[C@H]1O[C@@H]1[C@H](O)[C@H](C)/C=C/C=C(\C)[C@H]1OC(=O)C[C@H](O)CC[C@@](C)(O)[C@@H](OC(C)=O)/C=C/[C@@H]1C | 23.5 | 2.1 | Activity (B-CLL [1]): Active |
| CC[C@H](OC)[C@@H](C)[C@H]1O[C@@H]1[C@H](O)[C@@H](C)/C=C/C=C(\C)[C@H]1OC(=O)C[C@H](O)CC[C@@](C)(O)[C@@H](OC(C)=O)/C=C/[C@@H]1C | 3.7 | 109 | – |
| CC[C@H](OC)[C@@H](C)[C@H]1O[C@@H]1[C@@H](O)[C@H](C)/C=C/C=C(\C)[C@H]1OC(=O)C[C@H](O)CC[C@@](C)(O)[C@@H](OC(C)=O)/C=C/[C@@H]1C | 0.8 | – | – |
| CC[C@H](O)[C@@H](C)[C@H]1O[C@@H]1C[C@H](C)/C=C/C=C(\C)[C@H]1OC(=O)CCCCCC/C=C/[C@@H]1C | > 50000 | – | – |
| Nc1nc(F)nc2c1ncn2[C@@H]1O[C@H](CO)[C@@H](O)[C@@H]1O | – | – | Activity (B-CLL [3]): inactive |
| CC[C@H](OC)[C@@H](C)[C@H]1O[C@@H]1[C@H](OC(C)=O)[C@H](C)/C=C/C=C(\C)[C@H]1OC(=O)C[C@H](OC(C)=O)CC[C@@](C)(O)[C@@H](OC(C)=O)/C=C/[C@@H]1C | 542 | – | – |
| CC[C@H](OC)[C@@H](C)[C@H]1O[C@@H]1[C@@H](O)[C@@H](C)/C=C/C=C(\C)[C@H]1OC(=O)C[C@H](O)CC[C@@](C)(O)[C@@H](OC(C)=O)/C=C/[C@@H]1C | 23 | > 50000 | – |
| CC[C@H](OC)[C@@H](C)[C@H]1O[C@@H]1[C@@H](O)[C@H](C)/C=C/C=C(\C)[C@H]1OC(=O)C[C@H](O)CCCC/C=C/[C@@H]1C | > 50000 | – | – |
| CC[C@H](OC)[C@@H](C)[C@H]1O[C@@H]1[C@@H](O)[C@H](C)/C=C/C=C(\C)[C@H]1OC(=O)CCCCCC/C=C/[C@@H]1C | > 50000 | – | – |
| CC[C@H](OC)[C@@H](C)[C@H]1C[C@@H]1[C@@H](O)[C@@H](C)/C=C/C=C(\C)[C@H]1OC(=O)C[C@H](O)CC[C@@](C)(O)[C@@H](OC(C)=O)/C=C/[C@@H]1C | 82.3 | – | – |
| CC[C@H](OC)[C@@H](C)[C@H]1C[C@@H]1[C@@H](O)[C@H](C)/C=C/C=C(\C)[C@H]1OC(=O)C[C@H](O)CC[C@@](C)(O)[C@@H](OC(C)=O)/C=C/[C@@H]1C | 42.9 | 103 | Activity (B-CLL [1]): Active; Activity (B-CLL [4]): Active |
